For 37 compounds, IC50 results are on record in patent US12624034B2, “Non-covalent modifiers of AKT1 and uses thereof” (Terremoto Biosciences, Inc., priority 2023, dated 2026).

Usually pIC50 stands for the IC50 on a negative log10 scale, so that one unit is a factor of ten.

SMILES strings stand for the structures. pIC50: −log10 of the molar value. Where two headings read alike, the source gives them in different places.

For experiment [1], the target named is T1, AKT1 WT (Homo sapiens, UniProt P31749).
T1 construct: expressed in transfected cells; host or cells: HEK293
Kind of experiment: Live cell AKT1 WT target engagement by NanoBRET competitive probe displacement in HEK293 cells. The class given is binding. The note with it: 2 h at 37° C., read-out: AKT1 WT IC50. As to the method: (§1) Determining live cell AKT1 E17K, AKT1 WT, and AKT2 target engagement by NanoBRET competitive probe displacement. […] Briefly, HEK293 cells were transfected with plasmids encoding kinase-NanoLuciferase fusion proteins overnight. Cells were then treated with serial dilutions of compound and an ˜EC50 concentration of fluorescently-tagged ATP-competitive tracer (Promega). After incubation for 2 h at 37° C., luciferase substrate and extracellular luciferase inhibitor were added to all wells, and luminescent intensity at 460 nm and 600 nm were measured on a multimode plate-reader. The ratio of E600/E460 was calculated to give the tracer engagement signal (BRET). IC50 values were calculated by fitting BRET values to a log(inhibitor) vs. response Hill equation.
(In BRET a luciferase serves as donor, and the signal depends on an acceptor being close.)

The target in experiment [2] is T2, AKT2 (Homo sapiens, UniProt P31751).
T2 construct: expressed in transfected cells; host or cells: HEK293
Description: Live cell AKT2 target engagement by NanoBRET competitive probe displacement in HEK293 cells. Particulars: 2 h at 37° C., read-out: AKT2 IC50. The format is binding. As to the method: as §1

[3] abbreviates: NanoBRET live cell target engagement, HEK293 cells.
[4] abbreviates: NanoBRET competitive probe displacement, live HEK293 cells.

T2 sequence (P31751 whole entry): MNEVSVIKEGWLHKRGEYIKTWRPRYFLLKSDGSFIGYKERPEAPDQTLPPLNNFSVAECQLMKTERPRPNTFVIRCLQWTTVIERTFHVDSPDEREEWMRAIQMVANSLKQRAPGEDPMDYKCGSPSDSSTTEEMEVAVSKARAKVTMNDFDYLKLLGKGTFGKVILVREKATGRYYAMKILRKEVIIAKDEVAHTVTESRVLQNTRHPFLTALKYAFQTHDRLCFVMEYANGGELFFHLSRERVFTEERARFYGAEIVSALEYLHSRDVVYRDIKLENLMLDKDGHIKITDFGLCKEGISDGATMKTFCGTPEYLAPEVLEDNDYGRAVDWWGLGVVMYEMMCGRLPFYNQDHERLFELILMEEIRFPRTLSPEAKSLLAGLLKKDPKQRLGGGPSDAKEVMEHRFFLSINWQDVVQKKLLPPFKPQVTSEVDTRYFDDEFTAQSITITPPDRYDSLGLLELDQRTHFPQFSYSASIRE
T1 sequence (P31749 whole entry): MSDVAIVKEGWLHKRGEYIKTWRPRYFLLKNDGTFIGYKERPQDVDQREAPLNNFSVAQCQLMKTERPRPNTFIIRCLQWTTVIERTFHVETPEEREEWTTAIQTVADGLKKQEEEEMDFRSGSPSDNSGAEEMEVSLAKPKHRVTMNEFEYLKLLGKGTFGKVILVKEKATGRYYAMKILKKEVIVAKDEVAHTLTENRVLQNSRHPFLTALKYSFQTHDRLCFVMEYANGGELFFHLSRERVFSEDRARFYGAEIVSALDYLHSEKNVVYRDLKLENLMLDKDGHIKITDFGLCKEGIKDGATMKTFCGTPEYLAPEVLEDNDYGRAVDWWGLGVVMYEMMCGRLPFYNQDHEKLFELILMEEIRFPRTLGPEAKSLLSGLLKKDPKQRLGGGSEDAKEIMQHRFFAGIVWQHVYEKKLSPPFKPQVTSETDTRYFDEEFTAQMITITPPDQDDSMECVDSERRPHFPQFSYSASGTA

Turning to `Cc1ccc(C(=O)N[C@H]2CCc3cc(-n4c(-c5cccnc5N)nc5ccc(-c6ccn(C(F)F)n6)nc54)ccc32)cn1` [Compound 73], the pIC50 in experiment [1] (setting [3]) was 8.04; in experiment [2] (setting [3]), 7.30.
The matching figures for `Nc1ncccc1-c1nc2ccc(-n3cccn3)nc2n1-c1ccc2c(c1)CC[C@@H]2NC(=O)c1ccn2nccc2n1` [Compound 306]: 7.46 and 6.88.
Take `CS(=O)(=O)Nc1ccn(-c2ccc3nc(-c4cccnc4N)n(-c4ccc5c(c4)CC[C@@H]5NC4CCN(C(=O)C5CC5)CC4)c3n2)n1` [Compound 582]: the pIC50 is under 6.00 in experiment [1] (setting [4]) and under 5.00 in experiment [2] (setting [4]).
With `Nc1ncccc1-c1nc2c(F)cc(-n3cccn3)nc2n1-c1ccc2c(c1)CC[C@@H]2NC(=O)c1ccc(C(F)F)nc1` [Compound 165, (S)—N-(5-(2-(2-aminopyridin-3-yl)-7-fluoro-5-(1H-pyrazol-1-yl)-3H-imidazo[4,5-b]pyridin-3-yl)-2,3-dihydro-1H-inden-1-yl)-6-(difluoromethyl)nicotinamide], the pIC50 is 7.94 in experiment [1] (setting [3]) and 7.00 in experiment [2] (setting [3]).
The matching figures for `Cc1ncccc1OCC1CCc2cc(-n3c(-c4cccnc4N)nc4ccc(-n5cccn5)nc43)ccc21` (single isomer, unassigned) [Compound 252, (*)-3-(3-(1-(((2-methylpyridin-3-yl)oxy)methyl)-2,3-dihydro-1H-inden-5-yl)-5-(1H-pyrazol-1-yl)-3H-imidazo[4,5-b]pyridin-2-yl)pyridin-2-amine]: 6.22 and 5.58.
Regarding `Cn1nc(C(=O)N[C@H]2CCc3cc(-n4c(-c5cccnc5N)nc5ccc(-n6cccn6)nc54)ccc32)c2cccnc21` [Compound 163], the negative logarithm of the IC50 (pIC50) in experiment [1] (setting [3]) was 7.69; in experiment [2] (setting [3]), 6.44.
With `COc1cnn(-c2ccc3nc(-c4cccnc4N)n(-c4ccc5c(c4)CC[C@@H]5NC4CCN(C(=O)C5CC5)CC4)c3n2)c1` [Compound 485], the values for the pIC50 in experiment [1] (setting [4]) and in experiment [2] (setting [4]) were 7.29 and 6.00, respectively.
With `Nc1ncccc1-c1nc2ccc(-n3cccn3)nc2n1-c1ccc2c(c1)CC[C@@H]2NC1CCC2(CC1)CN(c1ccccn1)C2` [Compound 450], the figures for the pIC50 in experiment [1] (setting [4]) and in experiment [2] (setting [4]) were 6.70 and 5.35, respectively.
With `Nc1ncccc1-c1nc2ccc(-n3nccn3)nc2n1-c1ccc2c(c1)CC[C@@H]2NC(=O)c1cccnc1C(F)F` [Compound 107], the pIC50 is 6.93 in experiment [1] (setting [3]) and under 5.00 in experiment [2] (setting [3]).
In the case of `COCc1ccn(-c2ccc3nc(-c4cccnc4N)n(-c4ccc5c(c4)CC[C@@H]5NC4CCN(C(=O)C5CC5)CC4)c3n2)n1` [Compound 590], the pIC50 in experiment [1] (setting [4]) was 7.34; in experiment [2] (setting [4]), 5.81.
As for `Nc1ncccc1-c1nc2ccc(-n3cccn3)nc2n1-c1ccc2c(c1)CC[C@@H]2NC(=O)c1ccc(OC(F)(F)F)nc1` [Compound 68], the pIC50 in experiment [1] (setting [3]) is 8.28; in experiment [2] (setting [3]), 7.82.
As for `Nc1ncccc1-c1nc2ccc(-n3cccn3)nc2n1-c1ccc2c(c1)CC[C@@H]2NC1CCc2nc(C(F)F)sc21` (some centres unmarked) [Compound 600], the negative-log IC50 (pIC50) was 6.38 in experiment [1] (setting [4]) and 5.15 in experiment [2] (setting [4]).
Turning to `Nc1ncccc1-c1nc2ccc(-n3cccn3)nc2n1-c1ccc2c(c1)CC[C@@H]2n1cc(Cc2ccccc2)nn1` [Compound 156], the pIC50 in experiment [1] (setting [3]) was 7.41; in experiment [2] (setting [3]), 6.14.
In the same order, the values of `Cc1ncccc1C(=O)N[C@H]1CCc2cc(-n3c(-c4cccnc4N)nc4c(C#N)cc(-n5cccn5)nc43)ccc21` [Compound 125] are 7.88 and 6.70.
The matching figures for `Cc1csc(-c2ccc3nc(-c4cccnc4N)n(-c4ccc5c(c4)CC[C@@H]5NC(=O)c4ccn(C)n4)c3n2)n1` [Compound 374, (S)—N-(5-(2-(2-aminopyridin-3-yl)-5-(4-methylthiazol-2-yl)-3H-imidazo[4,5-b]pyridin-3-yl)-2,3-dihydro-1H-inden-1-yl)-1-methyl-1H-pyrazole-3-carboxamide]: 7.56 and 6.41.
Turning to `Nc1ncccc1-c1nc2ccc(-n3cccn3)nc2n1-c1ccc2c(c1)CC[C@@H]2NC1CCN(C(=O)C(F)F)CC1` [Compound 475], the pIC50 in experiment [1] (setting [4]) was 6.89; in experiment [2] (setting [4]), 5.56.
For the compound `Cc1ncccc1C(=O)N[C@@H]1c2ccc(-n3c(-c4cccnc4N)nc4ccc(-n5cccn5)nc43)cc2CC1F` (some centres unmarked) [Compound 148], the pIC50 in experiment [1] (setting [3]) was 7.78; in experiment [2] (setting [3]) it was 6.97.
Regarding `Cn1ccc(CN[C@H]2CCc3cc(-n4c(-c5cccnc5N)nc5ccc(-n6cccn6)nc54)ccc32)n1` [Compound 206], the pIC50 was 6.92 in experiment [1] (setting [3]) and 5.75 in experiment [2] (setting [3]).
As for `Nc1ncccc1-c1nc2ccc(C#CC3CC3)nc2n1-c1ccc2c(c1)CC(F)[C@@H]2NC1CCN(C(=O)C2CC2)CC1` (some centres unmarked) [Compound 521], the pIC50 in experiment [1] (setting [4]) is 6.98; in experiment [2] (setting [4]), under 5.00.
For `Nc1ncccc1-c1nc2ccc(-n3cccn3)nc2n1-c1ccc2c(c1)CC[C@@H]2n1ccc(=O)cc1` [Compound 83, (S)-1-(5-(2-(2-aminopyridin-3-yl)-5-(1H-pyrazol-1-yl)-3H-imidazo[4,5-b]pyridin-3-yl)-2,3-dihydro-1H-inden-1-yl)pyridin-4(1H)-one], the pIC50 in experiment [1] (setting [3]) is 6.86; in experiment [2] (setting [3]), 6.06.
The matching figures for `Nc1ncccc1-c1nc2ccc(-n3cccn3)nc2n1-c1ccc2c(c1)CC[C@@H]2NC(=O)c1ccnn1C(F)F` [Compound 170]: 7.16 and 5.86.
In the same order, the values of `Nc1ncccc1-c1nc2ccc(-n3cccn3)nc2n1-c1ccc2c(c1)CC[C@@H]2n1cc(-c2cccnc2)nn1` [Compound 199] are 7.97 and 7.08.
Regarding `Nc1ncccc1-c1nc2ccc(-n3cccn3)nc2n1-c1ccc2c(c1)CC[C@@H]2NC1CCN(C(=O)C2COC2)CC1` [Compound 423], the values for the pIC50 in experiment [1] (setting [4]) and in experiment [2] (setting [4]) were 6.73 and 5.58, respectively.
As to `Nc1ncccc1-c1nc2ccc(-n3cccn3)nc2n1-c1ccc2c(c1)CC[C@@H]2NC(=O)c1ccc(N2CCOCC2)nc1` [Compound 95], the negative-log IC50 (pIC50) in experiment [1] (setting [3]) is 8.16; in experiment [2] (setting [3]), 8.03.
As for `Nc1ncccc1-c1nc2ccc(-n3ccc(OC(F)F)n3)nc2n1-c1ccc2c(c1)CC[C@@H]2NC1[C@@H]2COC[C@H]1CN(C(=O)C1CC1)C2` (some centres unmarked) [Compound 561], the figures for the pIC50 in experiment [1] (setting [4]) and in experiment [2] (setting [4]) were 7.03 and 5.51, respectively.
Consider `Cc1nccnc1C(=O)N[C@H]1CCc2cc(-n3c(-c4cccnc4N)nc4ccc(-n5cccn5)nc43)ccc21` [Compound 118], for which the values for the pIC50 in experiment [1] (setting [3]) and in experiment [2] (setting [3]) were 7.18 and 5.49, respectively.
In the same order, the values of `Nc1ncccc1-c1nc2ccc(-n3cccn3)nc2n1-c1ccc2c(c1)CC[C@@H]2NC(=O)c1ccc(O)c(Cl)c1` [Compound 258] are 8.51 and 7.22.
`Cn1nc(C(=O)N[C@H]2CCc3cc(-n4c(-c5cccnc5N)nc5ccc(-n6cccn6)nc54)ccc32)cc1F` [Compound 428]: the pIC50 in experiment [1] (setting [4]) was 7.23; in experiment [2] (setting [4]), 5.76.
With `Nc1ncccc1-c1nc2ccc(-n3cccn3)nc2n1-c1ccc2c(c1)CC[C@@H]2NC(=O)c1ccc(F)c(Cl)c1` [Compound 337], the figures for the pIC50 in experiment [1] (setting [3]) and in experiment [2] (setting [3]) were 8.06 and 7.09, respectively.
In the same order, the values of `Nc1ncccc1-c1nc2ccc(-n3cccn3)nc2n1-c1ccc2c(c1)CC[C@@H]2NC(=O)c1cccnc1C(F)F` [Compound 79] are 7.71 and 6.27.
In the same order, the values of `Cc1cn(C)nc1C(=O)N[C@H]1CCc2cc(-n3c(-c4cccnc4N)nc4ccc(-n5cccn5)nc43)ccc21` [Compound 172] are 6.69 and 5.62.
The matching figures for `Nc1ncccc1-c1nc2ccc(-n3nccn3)nc2n1-c1ccc2c(c1)CC[C@@H]2NC(=O)c1cc(F)c2[nH]ncc2c1` [Compound 383]: 7.89 and 6.67.
As to `Cc1ncccc1C(=O)N[C@H]1CCc2cc(-n3c(-c4cccnc4N)nc4c(C(F)F)cc(-n5cccn5)nc43)ccc21` [Compound 213], the pIC50 in experiment [1] (setting [3]) was 7.86; in experiment [2] (setting [3]), 7.22.
As for `Nc1ncccc1-c1nc2ccc(-n3cccn3)nc2n1-c1ccc2c(c1)CC[C@@H]2NC(=O)c1cccnc1C(F)(F)F` [Compound 110], the pIC50 in experiment [1] (setting [3]) is 7.34; in experiment [2] (setting [3]), 6.02.
The matching figures for `Nc1ncccc1-c1nc2ccc(-n3cccn3)nc2n1-c1ccc2c(c1)CC[C@@H]2NC(=O)N1CCOCC1` [Compound 27, (S)—N-(5-(2-(2-aminopyridin-3-yl)-5-(1H-pyrazol-1-yl)-3H-imidazo[4,5-b]pyridin-3-yl)-2,3-dihydro-1H-inden-1-yl)morpholine-4-carboxamide]: under 6.00 and under 5.00.
For the compound `Cc1ccc(C(=O)N[C@H]2CCc3cc(-n4c(-c5cccnc5N)nc5ccc(-c6ncn(C)n6)nc54)ccc32)cn1` [Compound 455, (S)—N-(5-(2-(2-aminopyridin-3-yl)-5-(1-methyl-1H-1,2,4-triazol-3-yl)-3H-imidazo[4,5-b]pyridin-3-yl)-2,3-dihydro-1H-inden-1-yl)-6-methylnicotinamide], the pIC50 in experiment [1] (setting [4]) was 6.71; in experiment [2] (setting [4]), 5.52.
Turning to `Cc1ncccc1C(=O)N[C@H]1CCc2cc(-n3c(-c4cccnc4N)nc4ccc(-c5ncco5)nc43)ccc21` [Compound 229], the negative logarithm of the IC50 (pIC50) in experiment [1] (setting [3]) was 7.02; in experiment [2] (setting [3]), 5.55.
